This is an account of results in US20240099951A1, “HAIR GROWTH STIMULANT” (ADJUVANT HOLDINGS CO., LTD., priority 2020, published 2024).

Structures are written as SMILES.

Assay [1] deals with skin samples derived from C57BL/6N mouse dorsal body hair skin grafted onto Balb/c nu/nu mice. Kind of assay: Evaluation of hair growth activity: drug applied on skin samples transplanted in mice. The assay is classed as in vivo. On the procedure:
C57BL/6N mice (male) and Balb/c nu/nu mice (female) were purchased from Japan SLC, Inc. (Japan) and bred, and were thereafter made available for the following testing. Note that the testing and breeding of animals complied with pertinent laws, regulations, ordinances, and guidelines, and was performed with the approval of the Experimental Ethics Review Board of the Institute of Physical and Chemical Research. The following reagents were respectively prepared. • Comparative Example 1: 60% aqueous ethanol solution • Comparative Example 2: 5% minoxidil solution • Comparative Example 3: 3% minoxidil solution • Comparative Example 4: 1% minoxidil solution • Working Example 1: 3% phytosphingosine solution • Working Example 2: 1% phytosphingosine solution To collect dorsal body hair skin in the form of anagen stage VI skin 12 to 14 days following depilation, C57BL/6N mice of age 7 to 8 weeks were depilated at locations where dorsal body hair skin was intended to be collected, and were bred for 12 to 14 days. The depilated C57BL/6N mice were thereafter euthanized by cervical dislocation, following which a suitable amount of dorsal body hair skin was collected from the locations at which dorsal body hair skin was intended to be collected. The collected skin was immersed in DMEM culture medium (hereinafter “DMEM 10”) which contained 10 mM HEPES, 10% fetal bovine serum, and 1% penicillin/streptomycin solution. The collected dorsal body hair skin was grasped with bent-nose curved tweezers and was treated by immersion for 10 seconds in a sterilizing solution. Sterilization treatment was performed by carrying out treatment with 7% povidone iodine solution two times, treatment with PBS (−) three times, and treatment with DMEM 10 two times, in this order, with fresh solutions respectively being used each time. Following sterilization treatment, these were immersed in clean DMEM 10. Following sterilization treatment, the dorsal body hair skin was cut into pieces and formed into blocks. The transparent connective tissue which adhered to the cutaneous muscle layer of the skin was excised therefrom using curved scissors, and hair groups were cut into rectangular strips in parallel fashion with respect to the direction of the wave of the hair. At this time, these were cut into blocks such that there were 6 rows of hair follicles along the long axis, adjustment having been carried out so that there were 5 rows of hair follicles along the short axis. The skin samples derived from dorsal body hair skin that were prepared in accordance with the foregoing were grafted onto Balb/c nu/nu mice of age 4 to 6 weeks. More specifically, mice were anesthetized in the usual way using isoflurane gas. The dorsal area of the mice was then disinfected using 7% povidone iodine solution, following which the mice were made to assume a naturally recumbent posture. In addition, a Mani ophthalmic knife (Mani, Inc.; Japan) was used to pierce the skin at the dorsal area of the mice, the grafts which were formed extending from the epidermal layer of the skin to the subdermal layer. The skin samples derived from dorsal body hair skin were inserted into the grafts formed thereat in such fashion as to cause the hair groups to be directed toward the body surface side of the grafts. Skin sample transplanted depth was adjusted so as to cause the top portion of the hair group to be in a state such that it was exposed at the top portion of the graft. To protect the grafts, Nurseban (registered trademark) (Sunplanet Co., Ltd.; Japan) and surgical tape (3M Japan Limited; Japan) were then used as protective tape to cover the grafts at which the skin samples derived from dorsal body hair skin had been transplanted. The protective tape was removed 5 to 7 days following transplantation, and survival of the transplanted skin samples derived from dorsal body hair skin was determined by visual inspection or digital microscopy (Keyence Corporation; Japan), after which follow-up observation was carried out. […]

Assay [2] relates to hair groups derived from C57BL/6N dorsal body hair skin transplanted in Balb/c nu/nu mice. Kind of assay: Evaluation of hair-diameter-increasing activity (hair shafts grown after third cycle of Exemplary Test 1). The assay is classed as in vivo. On the procedure:
Dorsal body hair skin was collected from C57BL/6N mice (SLC) of age 7 to 8 weeks in accordance with a procedure similar to that at Exemplary Test 1, above, the drug being applied after the hair groups derived from the dorsal body hair skin that had been fabricated were transplanted in Balb/c nu/nu mice (SLC) of age 4 to 6 weeks. Testing and breeding of animals complied with pertinent laws, regulations, ordinances, and guidelines, and was performed with the approval of the Experimental Ethics Review Board of the Institute of Physical and Chemical Research. The following three solutions were used during testing. • 60% aqueous ethanol solution • 5% minoxidil solution • 1% phytosphingosine solution Measurement of increase in hair diameter was carried out using hair shafts which had grown following completion of the third cycle at Exemplary Test 1. Of the hair shafts that were collected, two zigzag hairs were used. Three locations were selected in regions where diameter was large in the central portions thereof using a square 100 μm on a side. Measurement of selected regions was carried out at five locations. Hairs as they existed following application of the drug were used for measurement of hair shaft diameter.

The mark [3] stands for this setting: 1% phytosphingosine solution (Working Example 2), second hair cycle.
[4] abbreviates: 1% phytosphingosine solution (Working Example 2), third hair cycle.
[5] abbreviates: 1% phytosphingosine solution, second hair cycle vs first hair cycle.
[6] abbreviates: 1% phytosphingosine solution, third hair cycle vs first hair cycle.
The mark [7] stands for this setting: 3% phytosphingosine solution (Working Example 1), second hair cycle.
The mark [8] stands for this setting: 3% phytosphingosine solution (Working Example 1), third hair cycle.
The mark [9] stands for this setting: 3% phytosphingosine solution, second hair cycle vs first hair cycle.
[10] abbreviates: 3% phytosphingosine solution, third hair cycle vs first hair cycle.
[11] abbreviates: solution containing 1% phytosphingosine.
Where [12] appears, read: solution containing 3% phytosphingosine.

With `CCCCCCCCCCCCCC[C@@H](O)[C@@H](O)[C@@H](N)CO` [phytosphingosine], the “Hair shaft elongation rate” value in assay [1] (setting [3]) is 0.48 ± 0.03 mm/day; in assay [1] (setting [4]), 0.45 ± 0.02 mm/day; in assay [1] (setting [7]), 0.46 ± 0.03 mm/day; in assay [1] (setting [8]), 0.43 ± 0.05 mm/day. Besides, the “Maximum hair shaft length” value in assay [1] (setting [3]) came out at 5.1 ± 0.2 mm; in assay [1] (setting [4]), 4.7 ± 0.1 mm; in assay [1] (setting [7]), 5.4 ± 0.1 mm; in assay [1] (setting [8]), 5.1 ± 0.3 mm. The “Hair shaft elongation rate, percent change relative to reference data” value in assay [1] (setting [5]) was 129.73%; in assay [1] (setting [6]) it was 121.62%; in assay [1] (setting [9]), 109.52%; in assay [1] (setting [10]) it was 102.38%. The “Maximum hair shaft length, percent change relative to reference data” value is given as 113.33% in assay [1] (setting [5]), 104.44% in assay [1] (setting [6]), 122.73% in assay [1] (setting [9]) and 115.91% in assay [1] (setting [10]). Further, the hair growth activity result in assay [1] (setting [11]) and in assay [1] (setting [12]) was “exhibit hair growth activity” throughout. Besides, the “hair shaft elongation rate as compared with reference data” value in assay [1] (setting [11]) is given as “significant improvement”; in assay [1] (setting [12]) it was “no significant difference”. Also, the “maximum hair shaft length as compared with reference data” value is recorded as “no significant difference” in assay [1] (solution containing 1% phytosphingosine, third hair cycle) and “significant improvement” in assay [1] (setting [12]). The Hair shaft diameter in assay [2] (1% phytosphingosine solution applied, hair shafts after third cycle) is given as 20.15 μm. The “hair shaft diameter as percent of control” value in assay [2] (1% phytosphingosine solution vs 60% aqueous ethanol solution) was found to be 127%.
